ChEMBL document CHEMBL1201862, “PubChem BioAssay data set” (2004)
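All cell lines were grown in 96-well plates and treated with compound for 48 hours. Here, GI50 denotes the concentration required for 50% inhibition of growth.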 Active and inactive are the calls of the source. Cut-off read from the data, not from the text of the source: active = GI50 up to about 1.1 µM and inactive = higher.

What was measured:
Assay in all cases: growth of human tumour cells (NCI), 48 h
CAKI-1 = tested on: CAKI-1
DLD-1 = tested on: DLD-1
DMS-114 = tested on: DMS-114
DMS-273 = tested on: DMS-273
EKVX = tested on: EKVX
HCT-116 = tested on: HCT-116
HCT-15 = tested on: HCT-15
HOP-18 = tested on: HOP-18
HOP-62 = tested on: HOP-62
HOP-92 = tested on: HOP-92
K562 = tested on: K562
MOLT-4 = tested on: MOLT-4
NCI-H226 = tested on: NCI-H226
OVCAR-4 = tested on: OVCAR-4
SF-295 = tested on: SF-295
SK-MEL-2 = tested on: SK-MEL-2
SNB-19 = tested on: SNB-19
SNB-75 = tested on: SNB-75
BT-549 = tested on: BT-549
Hs-578T = tested on: Hs-578T

Structure (SMILES) | GI50 (CAKI-1) | GI50 (DLD-1) | GI50 (DMS-114) | GI50 (DMS-273) | GI50 (EKVX) | GI50 (HCT-116) | GI50 (HCT-15) | GI50 (HOP-18) | GI50 (HOP-62) | GI50 (HOP-92) | GI50 (K562) | GI50 (MOLT-4) | GI50 (NCI-H226) | GI50 (OVCAR-4) | GI50 (SF-295) | GI50 (SK-MEL-2) | GI50 (SNB-19) | GI50 (SNB-75) | GI50 (BT-549) | GI50 (Hs-578T)
CC1(C)CCC[C@@]2(C)C1CCC1(C)C(CCc3ccoc3)/C(=C/OS(=O)(=O)O)CCC12 (stereo partly drawn) | > 100 µM (inactive) | 34.5 µM (inactive) | 34.6 µM (inactive) | > 100 µM (inactive) | > 100 µM (inactive) | 16.5 µM (inactive) | 49.5 µM | > 100 µM (inactive) | > 100 µM (inactive) | 23.9 µM (inactive) | 31.2 µM (inactive) | 23.6 µM (inactive) | 54.8 µM (inactive) | 52.5 µM (inactive) | 49.9 µM (inactive) | 58.5 µM (inactive) | > 100 µM (inactive) | > 100 µM (inactive) |  | 
O=C1C(Br)=C[C@H]2C3C=CC(Br)(C3=O)[C@@H]12 (stereo partly drawn) | 9.25 µM (inactive) | 7.57 µM (inactive) | 14 µM (inactive) | 12.8 µM (inactive) | 15.4 µM (inactive) | 10.9 µM (inactive) | 12.2 µM | 49.4 µM (inactive) | 35.6 µM (inactive) | 16.2 µM (inactive) | 7.62 µM (inactive) | 2.3 µM (inactive) | 19 µM (inactive) | 15.7 µM (inactive) | 18 µM (inactive) | 14.3 µM (inactive) | 14.1 µM (inactive) | 22.5 µM (inactive) |  | 
CCOC(=O)Nc1nc2cc(Cn3cccc3)ccc2[nH]1 | 0.873 µM (active) | 3.93 µM (inactive) | 4.9 µM (inactive) | 3.66 µM (inactive) | 27.7 µM (inactive) | 1.02 µM (active) | 0.986 µM | 4.52 µM (inactive) | 1.36 µM (inactive) | 32.2 µM (inactive) | 0.359 µM (active) | 0.64 µM (active) | 15.8 µM (inactive) | 16.2 µM (inactive) | 0.807 µM (active) | 2.01 µM (inactive) | 1.83 µM (inactive) | 0.356 µM (active) | > 20.2 µM (inactive) | 0.857 µM (active)
Nc1ncnc2c1nnn2C1C=C(CO)C(O)C1O (stereo not drawn) | 74 µM (inactive) | 35.2 µM (inactive) | 44.5 µM (inactive) | 44 µM (inactive) | > 100 µM (inactive) | 27.8 µM (inactive) | 26.6 µM | 95.3 µM (inactive) | > 92 µM (inactive) | 14.3 µM (inactive) | 40.8 µM (inactive) | > 100 µM (inactive) | > 100 µM (inactive) | 32.4 µM (inactive) | > 100 µM (inactive) | > 60 µM (inactive) | > 100 µM (inactive) | 30.9 µM (inactive) |  | 
COc1ccc2c(c1)C=C(C(C)(C)C)NS2(=O)=O | > 100 µM (inactive) | > 100 µM (inactive) | > 100 µM (inactive) | > 100 µM (inactive) | > 100 µM (inactive) | > 100 µM (inactive) | > 100 µM | > 100 µM (inactive) | > 100 µM (inactive) | > 100 µM (inactive) | > 100 µM (inactive) | > 100 µM (inactive) | > 100 µM (inactive) | > 100 µM (inactive) | > 100 µM (inactive) | > 100 µM (inactive) | > 100 µM (inactive) | > 100 µM (inactive) |  | 
CCN(CC)C(=O)COc1ccc(Br)cc1Br | > 100 µM (inactive) | > 100 µM (inactive) | > 100 µM (inactive) | > 100 µM (inactive) | 7.91 µM (inactive) | > 100 µM (inactive) | > 100 µM | > 100 µM (inactive) | > 100 µM (inactive) | 87.5 µM (inactive) | > 100 µM (inactive) | > 100 µM (inactive) | > 100 µM (inactive) | > 100 µM (inactive) | > 100 µM (inactive) | > 100 µM (inactive) | > 100 µM (inactive) | 83.6 µM (inactive) |  | 
N#CCc1ccc(C(C#N)/C(CCCC(=O)Nc2cccc([N+](=O)[O-])c2)=N/NC(N)=S)cc1 (stereo not drawn) | > 100 µM (inactive) | 87.5 µM (inactive) | 99.1 µM (inactive) | > 100 µM (inactive) | 36.6 µM (inactive) | > 100 µM (inactive) | > 100 µM | > 100 µM (inactive) | > 100 µM (inactive) | 83.8 µM (inactive) | 81.7 µM (inactive) | 70.3 µM (inactive) | > 100 µM (inactive) | > 100 µM (inactive) | > 100 µM (inactive) | > 100 µM (inactive) | 76 µM (inactive) | > 100 µM (inactive) |  | 
Cc1ccc(S(=O)(=O)SCc2ccccc2CSS(=O)(=O)c2ccc(C)cc2)cc1 | 22.9 µM (inactive) | 15.2 µM (inactive) | 70.8 µM (inactive) | 21.1 µM (inactive) | 44.4 µM (inactive) | 21.3 µM (inactive) | 19.5 µM | > 100 µM (inactive) | > 100 µM (inactive) | 21.7 µM (inactive) | 15.7 µM (inactive) | 16 µM (inactive) | > 100 µM (inactive) | 18.7 µM (inactive) | 79.8 µM (inactive) |  | > 100 µM (inactive) | 57.7 µM (inactive) |  | 
CCCCN(CCCC)CC(C(C)=O)C(c1ccccc1)c1c(O)c2ccccc2oc1=O (stereo not drawn) | > 100 µM (inactive) | > 100 µM (inactive) | 91 µM (inactive) | > 100 µM (inactive) | > 100 µM (inactive) | > 100 µM (inactive) | > 100 µM | > 100 µM (inactive) | > 100 µM (inactive) | 28 µM (inactive) | > 100 µM (inactive) | > 100 µM (inactive) | > 100 µM (inactive) | > 100 µM (inactive) | > 100 µM (inactive) | > 100 µM (inactive) | > 100 µM (inactive) | 19.3 µM (inactive) |  | 
CC(=O)c1cccc(N2COC(C)(C)c3nc4ccccc4n3C2)c1 |  | > 100 µM (inactive) | > 100 µM (inactive) | > 100 µM (inactive) | > 100 µM (inactive) | > 100 µM (inactive) | > 100 µM | > 100 µM (inactive) | > 100 µM (inactive) | > 100 µM (inactive) | > 100 µM (inactive) | > 100 µM (inactive) | > 100 µM (inactive) | 14.3 µM (inactive) | > 100 µM (inactive) | > 100 µM (inactive) | > 100 µM (inactive) | > 100 µM (inactive) |  | 
CCCc1c(C(=O)OCC)[nH]c(C(=O)CCC(=O)c2[nH]c(C(=O)OCC)c(CCC)c2C(=O)OCC)c1C(=O)OCC | > 100 µM (inactive) | > 100 µM (inactive) | > 100 µM (inactive) | 84.5 µM (inactive) | > 100 µM (inactive) | > 100 µM (inactive) | > 100 µM | > 100 µM (inactive) |  | > 100 µM (inactive) | > 100 µM (inactive) | > 100 µM (inactive) | > 100 µM (inactive) | 48.3 µM (inactive) | > 100 µM (inactive) | 68.9 µM (inactive) | > 100 µM (inactive) | 19.1 µM (inactive) |  | 
O=C(Cc1ccccc1)NN1C(=O)C(Cl)C1c1ccccc1Cl (stereo not drawn) | > 60.3 µM (inactive) | > 69.2 µM (inactive) | 32.6 µM (inactive) | 72.8 µM (inactive) | > 100 µM (inactive) | 59.4 µM (inactive) | > 92.9 µM | > 100 µM (inactive) | > 100 µM (inactive) | > 100 µM (inactive) | 33.7 µM (inactive) | 26.2 µM (inactive) | > 100 µM (inactive) | > 100 µM (inactive) | 99.8 µM (inactive) | > 100 µM (inactive) | > 100 µM (inactive) | 51.3 µM (inactive) |  | 
COc1cccc(NC(=O)C(=O)C(C(C)=O)c2nc3ccc(Cl)cc3nc2O)c1 (stereo not drawn) | > 100 µM (inactive) | > 100 µM (inactive) | > 100 µM (inactive) | > 100 µM (inactive) | > 100 µM (inactive) | > 100 µM (inactive) | > 100 µM | > 100 µM (inactive) | > 100 µM (inactive) | > 100 µM (inactive) | > 100 µM (inactive) | > 100 µM (inactive) | > 100 µM (inactive) | > 100 µM (inactive) | > 100 µM (inactive) | > 100 µM (inactive) | > 100 µM (inactive) | 54.7 µM (inactive) |  | 
